The text below walks through data of patent US20240279520A1, “FLUORINE SUBSTITUTED ETHERS AND COMPOSITIONS, METHODS AND USES INCLUDING SAME” (Honeywell International Inc., priority 2022, published 2024).

The structures appear in SMILES notation. Where only a bound is given, the exact number is not on record here.

Holding throughout (type): physicochemical
A short description of series [1]: Boiling point of fluoroethers. Particulars: for Boiling point: Table 2; for Bp: Table 5.
A short description of a further series: Density of fluoroethers. Particulars: Table 2.
Series [2] in a line: Experimental dielectric property measurements, Agilent 85070 Dielectric Probe. Conditions: for Experimental Dk at 1 GHz / Experimental Loss Tangent at 1 GHZ: ambient pressure, approximately 23° C.; for Dielectric Constant (20 GHz): room temperature. The protocol:
“Dielectric Constant” means the dielectric constant as measured at room temperature at 20 giga hertz (GHz).
Experimental dielectric property measurements were made on all liquids using the Agilent 85070 Dielectric Probe. All measurements were made at ambient pressure and room temperature (approximately 23° C.). Prior to making measurements, the system was calibrated from 1 GHz to 20 GHz with an open circuit, a short circuit, and DI water (@22.4° C.) standard. The result of the calibration is shown in the Table 5 below for DI H2O, and is consistent with DI water at 22.4° C. The accuracy of the probe is given as: Dielectric constant, er′=er′+/−0.05|er*| with er″=er″+/−0.05|er*| and (loss=er″/er′).

In the case of `FC(F)OCC(F)(F)C(F)F` [Compound 1, 3-(difluoromethoxy)-1,1,2,2-tetrafluoropropane], in series [1], the Boiling point was determined as 76 °C and the Bp turned out to be 76 °C. Also, the Density in “Density of fluoroethers” is reported as 1.3-1.7. Besides, in series [2], the “Experimental Dk at 1 GHz” value came to 2.94, the “Experimental Loss Tangent at 1 GHZ” value came out at 0.036 and the “Dielectric Constant (20 GHz)” value was determined as 4.0.

For the molecule `FC(F)OCC(F)(F)C(F)(F)F` [Compound 2, 3-(difluoromethoxy)-1,1,1,2,2-pentafluoropropane], in series [1], the Boiling point worked out at 46 °C and the Bp was 46 °C. Moreover, in the series “Density of fluoroethers”, the Density is 1.3-1.7. For the same molecule, in series [2], the “Experimental Dk at 1 GHz” value was 5.21, the “Experimental Loss Tangent at 1 GHZ” value came to 0.038 and the “Dielectric Constant (20 GHz)” value turned out to be 3.4.

As for `FC(F)OC(C(F)(F)F)C(F)(F)F` [Compound 3, 2-(difluoromethoxy)-1,1,1,3,3,3-hexafluoropropane], in series [1], the Boiling point came out at 41 °C and the Bp is 41 °C. Moreover, the Density in the series “Density of fluoroethers” is listed as 1.3-1.7. The “Dielectric Constant (20 GHz)” value in series [2] is recorded as below 5.

For `FC(F)OCC(F)(F)C(F)(F)C(F)(F)F` [Compound 4, 4-(difluoromethoxy)-1,1,1,2,2,3,3-heptafluorobutane], in series [1], the Boiling point is 69 °C and the Bp was 69 °C. Moreover, the Density in “Density of fluoroethers” is on record as 1.3-1.7. In series [2], the “Experimental Dk at 1 GHz” value was determined as 4.51, the “Experimental Loss Tangent at 1 GHZ” value is listed as 0.054 and the “Dielectric Constant (20 GHz)” value came to 2.8.

`O` [DI Water, reference compound]: in series [1], the Bp turned out to be 100 °C. Further, in series [2], the “Experimental Dk at 1 GHz” value amounted to 79.15 and the “Experimental Loss Tangent at 1 GHZ” value is listed as 0.052.
